In the oligonucleotide strings, read from the 5' end, every base follows the letter of its sugar. An asterisk marks phosphorothioate; unmarked linkages are phosphodiester. Other units and linkages are bracketed, terminal groups are in braces. A string of capitals states the bases alone. e = 2'-O-(2-methoxyethyl) (MOE); [5mC] = 5-methylcytosine; d = 2'-deoxy (DNA)
tested on: human Factor 7 mRNA; assay: Antisense inhibition of human Factor 7 mRNA in HepB3 cells, lipofectin, 50 nM, real-time RT-PCR; assay type: cell-based; settings: Example 1; HepB3 cells, lipofectin, 50 nM, ~24 h, relative to untreated control cells
How it was run: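 HepB3 cells were transfected by lipofectin with 50 nM antisense oligonucleotide and harvested after about 24 h. Factor 7 mRNA was measured by real-time RT-PCR (primer probe set RTS 2927 in some runs), normalized to RIBOGREEN total RNA, and reported as percent inhibition versus untreated control.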

Substance | % Inhibition (human Factor 7 mRNA)
407601 (antisense e[5mC]*eA*eG*e[5mC]*e[5mC]*d[5mC]*dT*dG*dA*dA*dG*d[5mC]*d[5mC]*d[5mC]*dA*eA*eG*e[5mC]*eA*eG) [compound 407601] | 52%
407633 (antisense eG*e[5mC]*eA*eG*eG*d[5mC]*dA*dG*dT*d[5mC]*d[5mC]*dT*dG*dG*dG*eT*e[5mC]*eA*eT*e[5mC]) [compound 407633] | 71%
407642 (antisense e[5mC]*eA*eG*e[5mC]*eA*dG*d[5mC]*d[5mC]*dT*dG*dA*dG*dG*d[5mC]*d[5mC]*eA*eG*e[5mC]*eA*eG) [compound 407642] | 78%
407669 (antisense eT*eA*eG*eA*e[5mC]*d[5mC]*d[5mC]*dT*d[5mC]*dA*dG*dT*dG*dA*dG*eT*eG*eT*e[5mC]*eG) [compound 407669] | 57%
407660 (antisense eG*e[5mC]*eT*e[5mC]*eT*dG*dA*dA*dG*dT*dA*dG*dA*dT*dG*eA*eT*eG*e[5mC]*e[5mC]) [compound 407660] | 16%
407615 (antisense eG*eA*e[5mC]*eA*e[5mC]*d[5mC]*d[5mC]*d[5mC]*dG*dT*d[5mC]*dT*dG*d[5mC]*d[5mC]*eA*eG*e[5mC]*eA*eG) [compound 407615] | 65%
407909 (antisense e[5mC]*e[5mC]*eA*eT*e[5mC]*d[5mC]*dG*dA*dG*dT*dA*dG*d[5mC]*d[5mC]*dG*eG*e[5mC]*eA*e[5mC]*eA) [compound 407909] | 77%
407640 (antisense eG*e[5mC]*eA*eT*eG*dA*dG*d[5mC]*dT*dT*dT*dT*dG*d[5mC]*dA*eG*e[5mC]*e[5mC]*eA*e[5mC]) [compound 407640] | 79%
407603 (antisense eT*eA*eA*eG*eA*dA*dA*dT*d[5mC]*d[5mC]*dA*dG*dA*dA*d[5mC]*eA*eG*e[5mC]*eT*eT) [compound 407603] | 54%
407898 (antisense e[5mC]*e[5mC]*eA*eG*e[5mC]*dA*dG*dA*dG*dA*dG*dT*dA*d[5mC]*d[5mC]*e[5mC]*e[5mC]*eT*e[5mC]*eG) [compound 407898] | 49%
407955 (antisense eT*eG*eT*eG*eA*dA*dA*dT*dA*dT*d[5mC]*dA*dT*dT*dG*eA*e[5mC]*eA*eA*eG) [compound 407955] | 3%
407668 (antisense eG*eA*eA*eG*e[5mC]*d[5mC]*dT*dT*dA*d[5mC]*d[5mC]*dT*dG*d[5mC]*d[5mC]*eA*eT*eG*eG*eA) [compound 407668] | 54%

same assay, conditions: Example 4; HepB3 cells, lipofectin, 50 nM, ~24 h, relative to untreated control

Substance | % Inhibition (human Factor 7 mRNA)
422188 (antisense eG*e[5mC]*eG*dG*dA*dA*dG*dA*dA*dG*dG*dG*dA*d[5mC]*dG*dG*dA*eA*eG*eG) [compound 422188] | 37%
422269 (antisense eG*eA*dG*d[5mC]*dG*d[5mC]*dG*dG*dA*dA*dG*dA*dA*dG*dG*eG*eA*e[5mC]*eG*eG) [compound 422269] | 27%
422266 (antisense e[5mC]*eG*d[5mC]*dG*dG*dA*dA*dG*dA*dA*dG*dG*dG*dA*d[5mC]*eG*eG*eA*eA*eG) [compound 422266] | 13%
422263 (antisense eG*eG*dA*dA*dG*dA*dA*dG*dG*dG*dA*d[5mC]*dG*dG*dA*eA*eG*eG*eT*eG) [compound 422263] | 19%

same assay, conditions: Example 6 microwalk, nucleobases 15098 to 15122 of SEQ ID NO: 1; HepB3, lipofectin, 50 nM, ~24 h

Substance | % Inhibition (human Factor 7 mRNA)
422207 (antisense e[5mC]*eA*e[5mC]*dA*d[5mC]*dA*dT*dG*dG*dA*dG*dT*d[5mC]*dA*dG*d[5mC]*dA*eT*e[5mC]*eG) [compound 422207] | 41%

same assay, conditions: HepB3 cells, lipofectin, 50 nM antisense oligonucleotide, approximately 24 hours, primer probe set RTS 2927, relative to untreated control

Substance | % Inhibition of human Factor 7 mRNA levels
416562 (antisense eA*eA*eA*eG*e[5mC]*dA*dG*dA*dG*d[5mC]*d[5mC]*dA*dG*d[5mC]*dT*e[5mC]*eT*eG*eA*e[5mC]) [compound 416562] | 12%
416509 (antisense eA*eG*eG*eA*eG*d[5mC]*d[5mC]*d[5mC]*dG*dA*dG*dT*dT*d[5mC]*dT*eG*e[5mC]*eA*eG*eG) [compound 416509] | 56%
416555 (antisense eA*eA*eA*eG*eA*dT*d[5mC]*dA*dG*dG*d[5mC]*dA*dA*dA*dG*eA*eT*e[5mC]*e[5mC]*e[5mC]) [compound 416555] | 6%
416492 (antisense eG*eG*eA*eT*e[5mC]*dA*dT*dT*d[5mC]*dT*dG*dG*d[5mC]*d[5mC]*d[5mC]*eT*eG*eA*eG*e[5mC]) [compound 416492] | 13%
416524 (antisense eT*eA*eA*eT*eT*dT*dA*dA*dT*dA*dT*dT*d[5mC]*dA*dG*eA*eT*eG*eG*eT) [compound 416524] | 0%
416469 (antisense eG*e[5mC]*eA*eG*e[5mC]*d[5mC]*dA*d[5mC]*dT*d[5mC]*dG*dA*dT*dG*dT*eA*e[5mC]*eT*eG*eG) [compound 416469] | 55%
416437 (antisense eA*eG*eG*e[5mC]*eA*d[5mC]*dA*d[5mC]*dT*dG*dG*dT*d[5mC]*d[5mC]*d[5mC]*e[5mC]*eA*eT*e[5mC]*eA) [compound 416437] | 52%
416484 (antisense eT*eA*e[5mC]*eA*eG*d[5mC]*d[5mC]*dT*d[5mC]*dA*dA*dA*d[5mC]*dA*dT*e[5mC]*eT*eA*eT*e[5mC]) [compound 416484] | 0%
416551 (antisense e[5mC]*eA*eG*eA*eA*dA*d[5mC]*dA*d[5mC]*d[5mC]*d[5mC]*dA*dT*d[5mC]*d[5mC]*eT*e[5mC]*eT*eG*eA) [compound 416551] | 19%

same assay, conditions: HepB3 cells; gapmers (5-10-5, 3-14-3, 2-13-5 MOE) targeted to nucleobases 4868 to 4899 of SEQ ID NO: 1

Substance | % Inhibition of human Factor 7 mRNA levels
422299 (antisense eA*eG*d[5mC]*d[5mC]*d[5mC]*dG*dA*dG*dT*dT*d[5mC]*dT*dG*d[5mC]*dA*eG*eG*eA*eG*e[5mC]) [compound 422299] | 64%
416509 (antisense eA*eG*eG*eA*eG*d[5mC]*d[5mC]*d[5mC]*dG*dA*dG*dT*dT*d[5mC]*dT*eG*e[5mC]*eA*eG*eG) [compound 416509] | 60%
422144 (antisense e[5mC]*e[5mC]*e[5mC]*eG*eA*dG*dT*dT*d[5mC]*dT*dG*d[5mC]*dA*dG*dG*eA*eG*e[5mC]*eG*eG) [compound 422144] | 58%
422147 (antisense eG*eA*eG*e[5mC]*e[5mC]*d[5mC]*dG*dA*dG*dT*dT*d[5mC]*dT*dG*d[5mC]*eA*eG*eG*eA*eG) [compound 422147] | 64%
422213 (antisense eT*e[5mC]*eT*dG*d[5mC]*dA*dG*dG*dA*dG*d[5mC]*dG*dG*d[5mC]*d[5mC]*dT*dA*eA*eA*eT) [compound 422213] | 67%

same assay, conditions: HepB3 cells; gapmers targeted to nucleobases 11830 to 11869 of SEQ ID NO: 1 (Table 9)

Substance | % Inhibition of human Factor 7 mRNA levels
422235 (antisense eA*eT*dG*dG*dT*d[5mC]*dA*dG*dG*dG*d[5mC]*dT*dG*dG*dT*eT*eT*eT*eG*eG) [compound 422235] | 50%
422162 (antisense eG*eA*e[5mC]*dA*dA*dT*dG*dG*dT*d[5mC]*dA*dG*dG*dG*d[5mC]*dT*dG*eG*eT*eT) [compound 422162] | 59%
422095 (antisense eA*e[5mC]*eA*eA*eT*dG*dG*dT*d[5mC]*dA*dG*dG*dG*d[5mC]*dT*eG*eG*eT*eT*eT) [compound 422095] | 60%
422166 (antisense eA*eG*eG*dA*dG*dA*d[5mC]*dA*dA*dT*dG*dG*dT*d[5mC]*dA*dG*dG*eG*e[5mC]*eT) [compound 422166] | 63%
422245 (antisense eT*eG*dA*dG*dG*dA*dG*dA*d[5mC]*dA*dA*dT*dG*dG*dT*e[5mC]*eA*eG*eG*eG) [compound 422245] | 24%

same assay, conditions: HepB3 cells; gapmers targeted to nucleobases 13760 to 13789 of SEQ ID NO: 1 (Table 10)

Substance | % Inhibition of human Factor 7 mRNA levels
422257 (antisense e[5mC]*e[5mC]*dA*d[5mC]*d[5mC]*d[5mC]*dG*d[5mC]*d[5mC]*dG*dG*d[5mC]*dT*d[5mC]*dT*eG*e[5mC]*eT*e[5mC]*eA) [compound 422257] | 65%
422262 (antisense e[5mC]*eT*dG*d[5mC]*dG*d[5mC]*d[5mC]*dA*d[5mC]*d[5mC]*d[5mC]*dG*d[5mC]*d[5mC]*dG*eG*e[5mC]*eT*e[5mC]*eT) [compound 422262] | 0%
422259 (antisense e[5mC]*eG*d[5mC]*d[5mC]*dA*d[5mC]*d[5mC]*d[5mC]*dG*d[5mC]*d[5mC]*dG*dG*d[5mC]*dT*e[5mC]*eT*eG*e[5mC]*eT) [compound 422259] | 61%

same assay, conditions: HepB3 cells; gapmers targeted to nucleobases 14707 to 14732 of SEQ ID NO: 1 (Table 11)

Substance | % Inhibition of human Factor 7 mRNA levels
422133 (antisense eA*eG*e[5mC]*eA*eG*d[5mC]*d[5mC]*dT*dG*dA*dG*dG*d[5mC]*d[5mC]*dA*eG*e[5mC]*eA*eG*eA) [compound 422133] | 65%
407642 (antisense e[5mC]*eA*eG*e[5mC]*eA*dG*d[5mC]*d[5mC]*dT*dG*dA*dG*dG*d[5mC]*d[5mC]*eA*eG*e[5mC]*eA*eG) [compound 407642] | 63%
422204 (antisense eG*e[5mC]*eA*dG*d[5mC]*d[5mC]*dT*dG*dA*dG*dG*d[5mC]*d[5mC]*dA*dG*d[5mC]*dA*eG*eA*eT) [compound 422204] | 72%

Source: US20120214862A1, “MODULATION OF FACTOR 7 EXPRESSION” (ISIS Pharmaceuticals, Inc., priority 2009, published 2012)
